Patent publication US8961931B2, “18F-labeled monomeric galactose derivative used as tomography probe” (Institute of Nuclear Energy Research, Atomic Energy Council, priority 2011, dated 2015)

Test system: liver
Experiment: DMN-induced liver fibrosis, H & E and Masson's trichrome staining
Type: in vivo, mouse
Description: Please refer to FIG. 6, which is a view showing liver fibrosis of mice dyed through H & E and Masson methods. As shown in the figures, dimethylnitrosamine (DMN) is used to induce liver fibrosis. 12 mice are randomly divided into two groups each having 6 mice. One is an experimental group and the other is a control group. Mice in the experimental group are injected with 10 mg·kg of DMN for 3 continuous days in a week, and this process lasts for four weeks. Mice in the control group are injected with the same amount of normal saline diluted into a density of 10 mg/ml. During the time for inducing liver fibrosis, all mice are fed with food and water normally. Four days after injecting DMN the final time, dyeing methods of H & E and Masson's are used to examine sliced tissues of mouse bodies for confirming DMN's ability on inducing liver fibrosis of the mice.
For examining the tissues, the mice are sacrificed by blowing high-density CO2 for the mice to breathe in at first. Then, the livers are taken out to sink left lateral lobe in 4% pH 7.4 phosphate-buffered paraformaldehyde. After being paraffin-embedded for 24 hrs, 4 μm of each tissue is taken.
The tissues are examined for their morphological changes through methods of Hematoxylin and Eosin stains and then Masson's trichrome is used to examine statuses of liver fibrosis. […]

## CN(C)N=O [DMN, dimethylnitrosamine]
DMN 3 continuous days a week for four weeks
  average weight of mouse having fibrosis liver relative to normal mouse: 92%
Four days after final DMN injection
  Masson's trichrome staining of liver tissue: show blue color on fibrosis tissues
